In patent US6355799B1, “Substituted benzene compounds, process for their preparation, and herbicidal and defoliant compositions containing them” (ISK Americas Incorporated, priority 1997, dated 2002):

Columns and labels:
Assay type in all cases: in vivo
[1] = tested on: barnyardgrass (Echinochloa crus-galli, ECHCG); test: Pre-emerge test, greenhouse herbicide activity screening; conditions: for Pre-emerge Herbicidal Activity, phytotoxicity rating (0-100), ECHCG: rated 14 days after application, 0 = no damage, 100 = complete death; for phytotoxicity rating ECHCG: pre-emerge, 14 days after application, rating scale 0-100
Outline: (§1)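 Rating: 0–100 visual injury, 14 DAA. Application: acetone, 187 l/ha, 15–1000 g ai/ha, flat-fan track sprayer with nozzle 40–45 cm above soil or canopy. Post-emerge runs used 0.25% v/v surfactant on 2–3 leaf plants.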

[2] = tested on: ivyleaf morningglory (Ipomoea hederacea, IPOHE); test: as above; conditions: for Pre-emerge Herbicidal Activity, phytotoxicity rating (0-100), IPOHE: rated 14 days after application, 0 = no damage, 100 = complete death; for phytotoxicity rating IPOHE: pre-emerge, 14 days after application, rating scale 0-100
Outline: as §1

[3] = tested on: green foxtail (Setaria viridis, SETVI); test: as above; conditions: for Pre-emerge Herbicidal Activity, phytotoxicity rating (0-100), SETVI: rated 14 days after application, 0 = no damage, 100 = complete death; for phytotoxicity rating SETVI: pre-emerge, 14 days after application, rating scale 0-100
Outline: as §1

[4] = tested on: johnsongrass (Sorghum halepense, SORHA); test: as above; conditions: for Pre-emerge Herbicidal Activity, phytotoxicity rating (0-100), SORHA: rated 14 days after application, 0 = no damage, 100 = complete death; for phytotoxicity rating SORHA: pre-emerge, 14 days after application, rating scale 0-100
Outline: as §1

[5] = tested on: sicklepod (Cassia obtusifolia, CASOB); test: as above; conditions: for Pre-emerge Herbicidal Activity, phytotoxicity rating (0-100), CASOB: rated 14 days after application, 0 = no damage, 100 = complete death; for phytotoxicity rating CASOB: pre-emerge, 14 days after application, rating scale 0-100
Outline: as §1

[6] = tested on: large crabgrass (Digitaria sanguinalis, DIGSA); test: as above; conditions: for Pre-emerge Herbicidal Activity, phytotoxicity rating (0-100), DIGSA: rated 14 days after application, 0 = no damage, 100 = complete death; for phytotoxicity rating DIGSA: pre-emerge, 14 days after application, rating scale 0-100
Outline: as §1

[7] = tested on: lambsquarters (Chenopodium album, CHEAL); test: as above; conditions: for Pre-emerge Herbicidal Activity, phytotoxicity rating (0-100), CHEAL: rated 14 days after application, 0 = no damage, 100 = complete death; for phytotoxicity rating CHEAL: pre-emerge, 14 days after application, rating scale 0-100
Outline: as §1

[8] = tested on: velvetleaf (Abutilon theophrasti, ABUTH); test: as above; conditions: for Pre-emerge Herbicidal Activity, phytotoxicity rating (0-100), ABUTH: rated 14 days after application, 0 = no damage, 100 = complete death; for phytotoxicity rating ABUTH: pre-emerge, 14 days after application, rating scale 0-100
Outline: as §1

[9] = tested on: barnyardgrass (Echinochloa crus-galli, ECHCG); test: Post-emerge test, greenhouse herbicide activity screening; conditions: post-emerge, 14 days after application, rating scale 0-100
Outline: (§2)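 Compounds in acetone were track-sprayed at 15-1000 g ai/ha (187 l/ha) on sandy loam pots: pre-emerge one day after seeding, post-emerge at 2-3 leaf stage with 0.25% v/v non-ionic surfactant. Phytotoxicity was rated 14 days later on a 0 (no damage) to 100 (complete death) scale.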

[10] = tested on: ivyleaf morningglory (Ipomoea hederacea, IPOHE); test: as above; conditions: post-emerge, 14 days after application, rating scale 0-100
Outline: as §2

[11] = tested on: green foxtail (Setaria viridis, SETVI); test: as above; conditions: post-emerge, 14 days after application, rating scale 0-100
Outline: as §2

[12] = tested on: redroot pigweed (Amaranthus retroflexus, AMARE); test: as above; conditions: post-emerge, 14 days after application
Outline: as §2

[13] = tested on: johnsongrass (Sorghum halepense, SORHA); test: as above; conditions: post-emerge, 14 days after application, rating scale 0-100
Outline: as §2

[14] = tested on: sicklepod (Cassia obtusifolia, CASOB); test: as above; conditions: post-emerge, 14 days after application, rating scale 0-100
Outline: as §2

[15] = tested on: large crabgrass (Digitaria sanguinalis, DIGSA); test: as above; conditions: post-emerge, 14 days after application, rating scale 0-100
Outline: as §2

[16] = tested on: lambsquarters (Chenopodium album, CHEAL); test: as above; conditions: post-emerge, 14 days after application, rating scale 0-100
Outline: as §2

[17] = tested on: velvetleaf (Abutilon theophrasti, ABUTH); test: as above; conditions: post-emerge, 14 days after application, rating scale 0-100
Outline: as §2

[18] = tested on: redroot pigweed (Amaranthus retroflexus, AMARE); test: Pre-emerge test, greenhouse herbicide activity screening; conditions: for Pre-emerge Herbicidal Activity, phytotoxicity rating (0-100), AMARE: rated 14 days after application, 0 = no damage, 100 = complete death; for phytotoxicity rating AMARE: pre-emerge, 14 days after application, rating scale 0-100
Outline: as §1

[19] = 250 g ai/ha, rating scale 0-100

Cn1c(C(F)(F)F)cc(=O)n(-c2c(F)cc(Cl)c(OC(F)F)c2NC(=O)c2ccc3ccccc3c2)c1=O [Compound 2-115, 3-[4-chloro-3-difluoromethoxy-6-fluoro-2-(2-naphthoylamino)phenyl]-1-methyl-6-trifluoromethyl-2,4(1H, 3H)-pyrimidinedione]
Pre-emerge Herbicidal Activity, phytotoxicity rating (0-100), ECHCG ([1]; 63 g ai/ha): 80
Pre-emerge Herbicidal Activity, phytotoxicity rating (0-100), ECHCG ([1]; 125 g ai/ha): 95
Pre-emerge Herbicidal Activity, phytotoxicity rating (0-100), IPOHE ([2]; 63 g ai/ha): 0
Pre-emerge Herbicidal Activity, phytotoxicity rating (0-100), IPOHE ([2]; 125 g ai/ha): 90
Pre-emerge Herbicidal Activity, phytotoxicity rating (0-100), SETVI ([3]; 63 g ai/ha): 90
Pre-emerge Herbicidal Activity, phytotoxicity rating (0-100), SETVI ([3]; 125 g ai/ha): 99
Pre-emerge Herbicidal Activity, phytotoxicity rating (0-100), SORHA ([4]; 63 g ai/ha): 20
Pre-emerge Herbicidal Activity, phytotoxicity rating (0-100), SORHA ([4]; 125 g ai/ha): 30
Pre-emerge Herbicidal Activity, phytotoxicity rating (0-100), CASOB ([5]; 63 g ai/ha): 20
Pre-emerge Herbicidal Activity, phytotoxicity rating (0-100), CASOB ([5]; 125 g ai/ha): 80
Pre-emerge Herbicidal Activity, phytotoxicity rating (0-100), DIGSA ([6]; 63 g ai/ha): 90
Pre-emerge Herbicidal Activity, phytotoxicity rating (0-100), DIGSA ([6]; 125 g ai/ha): 100
Pre-emerge Herbicidal Activity, phytotoxicity rating (0-100), CHEAL ([7]; 63 g ai/ha): 100
Pre-emerge Herbicidal Activity, phytotoxicity rating (0-100), CHEAL ([7]; 125 g ai/ha): 100
Pre-emerge Herbicidal Activity, phytotoxicity rating (0-100), ABUTH ([8]; 63 g ai/ha): 100
Pre-emerge Herbicidal Activity, phytotoxicity rating (0-100), ABUTH ([8]; 125 g ai/ha): 100
phytotoxicity rating ECHCG ([9]; 63 g ai/ha): 10
phytotoxicity rating ECHCG ([9]; 250 g ai/ha): 20
phytotoxicity rating IPOHE ([10]; 63 g ai/ha): 90
phytotoxicity rating IPOHE ([10]; 250 g ai/ha): 95
phytotoxicity rating SETVI ([11]; 63 g ai/ha): 0
phytotoxicity rating SETVI ([11]; 250 g ai/ha): 0
phytotoxicity rating AMARE ([12]; 63 g ai/ha, rating scale 0-100): 100
phytotoxicity rating AMARE [12, 19]: 100
phytotoxicity rating SORHA ([13]; 63 g ai/ha): 0
phytotoxicity rating SORHA ([13]; 250 g ai/ha): 0
phytotoxicity rating CASOB ([14]; 63 g ai/ha): 90
phytotoxicity rating CASOB ([14]; 250 g ai/ha): 95
phytotoxicity rating DIGSA ([15]; 63 g ai/ha): 20
phytotoxicity rating DIGSA ([15]; 250 g ai/ha): 50
phytotoxicity rating CHEAL ([16]; 63 g ai/ha): 100
phytotoxicity rating CHEAL ([16]; 250 g ai/ha): 100
phytotoxicity rating ABUTH ([17]; 63 g ai/ha): 100
phytotoxicity rating ABUTH ([17]; 250 g ai/ha): 100
Pre-emerge Herbicidal Activity, phytotoxicity rating (0-100), AMARE ([18]; 63 g ai/ha): 100
Pre-emerge Herbicidal Activity, phytotoxicity rating (0-100), AMARE ([18]; 125 g ai/ha): 100

COc1c(Cl)cc(F)c(-n2c(=O)cc(C(F)(F)F)n(C)c2=O)c1OC(=O)c1ccc2ccccc2c1 [Compound 16-7, 3-[4-chloro-6fluoro-3-methoxy-2-(2-naphthoyloxy)phenyl]-1-methyl-6-trifluoromethyl-2,4(1H, 3H)-pyrimidinedione]
phytotoxicity rating ECHCG ([1]; 63 g ai/ha): 0
phytotoxicity rating ECHCG ([1]; 250 g ai/ha): 0
phytotoxicity rating IPOHE ([2]; 63 g ai/ha): 0
phytotoxicity rating IPOHE ([2]; 250 g ai/ha): 0
phytotoxicity rating SETVI ([3]; 63 g ai/ha): 0
phytotoxicity rating SETVI ([3]; 250 g ai/ha): 0
phytotoxicity rating SORHA ([4]; 63 g ai/ha): 0
phytotoxicity rating SORHA ([4]; 250 g ai/ha): 0
phytotoxicity rating CASOB ([5]; 63 g ai/ha): 0
phytotoxicity rating CASOB ([5]; 250 g ai/ha): 0
phytotoxicity rating DIGSA ([6]; 63 g ai/ha): 0
phytotoxicity rating DIGSA ([6]; 250 g ai/ha): 0
phytotoxicity rating CHEAL ([7]; 63 g ai/ha): 0
phytotoxicity rating CHEAL ([7]; 250 g ai/ha): 0
phytotoxicity rating ABUTH ([8]; 63 g ai/ha): 0
phytotoxicity rating ABUTH ([8]; 250 g ai/ha): 0
Post-emerge Herbicidal Activity ECHCG (phytotoxicity rating) ([9]; 63 g ai/ha): 0
Post-emerge Herbicidal Activity ECHCG (phytotoxicity rating) ([9]; 250 g ai/ha): 0
Post-emerge Herbicidal Activity IPOHE (phytotoxicity rating) ([10]; 63 g ai/ha): 0
Post-emerge Herbicidal Activity IPOHE (phytotoxicity rating) ([10]; 250 g ai/ha): 30
Post-emerge Herbicidal Activity SETVI (phytotoxicity rating) ([11]; 63 g ai/ha): 0
Post-emerge Herbicidal Activity SETVI (phytotoxicity rating) ([11]; 250 g ai/ha): 0
Post-emerge Herbicidal Activity AMARE (phytotoxicity rating) ([12]; 63 g ai/ha, rating scale 0-100 (0 no damage, 100 complete death)): 0
Post-emerge Herbicidal Activity AMARE (phytotoxicity rating) [12, 19]: 0
Post-emerge Herbicidal Activity SORHA (phytotoxicity rating) ([13]; 63 g ai/ha): 0
Post-emerge Herbicidal Activity SORHA (phytotoxicity rating) ([13]; 250 g ai/ha): 0
Post-emerge Herbicidal Activity CASOB (phytotoxicity rating) ([14]; 63 g ai/ha): 0
Post-emerge Herbicidal Activity CASOB (phytotoxicity rating) ([14]; 250 g ai/ha): 30
Post-emerge Herbicidal Activity DIGSA (phytotoxicity rating) ([15]; 63 g ai/ha): 0
Post-emerge Herbicidal Activity DIGSA (phytotoxicity rating) ([15]; 250 g ai/ha): 0
Post-emerge Herbicidal Activity CHEAL (phytotoxicity rating) ([16]; 63 g ai/ha): 0
Post-emerge Herbicidal Activity CHEAL (phytotoxicity rating) ([16]; 250 g ai/ha): 0
Post-emerge Herbicidal Activity ABUTH (phytotoxicity rating) ([17]; 63 g ai/ha): 0
Post-emerge Herbicidal Activity ABUTH (phytotoxicity rating) ([17]; 250 g ai/ha): 0
phytotoxicity rating AMARE ([18]; 63 g ai/ha): 0
phytotoxicity rating AMARE ([18]; 250 g ai/ha): 50
